For data set [1], the system named is DENV-2 NGC. Description: Antiviral activity against DENV-2 NGC in Vero-B cells (viral RNA load by RT-qPCR). It counts as cell-based, Dengue virus. The note with it: Dengue virus, DENV2, Vero B, DENV-2 in Vero-B cells; inhibition of viral RNA replication by 50% (Table 3). On the technique in general: Real-time PCR tracks product formation cycle by cycle.
A short description of data set [2]: in vitro. The note with it: African green monkey; for CC50 at 4 days: uninfected quiescent Vero-B cells.

Structures are written as SMILES.

With `COc1cccc(NC(C(=O)c2c[nH]c3ccccc23)c2cc(C)n(C)n2)c1` (stereo not shown) [CPD-267], it took 1.3 µM to reach a half-maximal effect in data set [1] (EC50). In data set [2], the CC50 at 4 days turned out to be 79 µM.

For the compound `COc1cccc(NC(C(=O)c2cccc3[nH]ccc23)c2ccccc2)c1` (stereo not shown) [CPD-302], a half-maximal response in data set [1] (EC50) required 0.65 µM. Further, the CC50 at 4 days in data set [2] came out at 15 µM.

Consider `COc1cc(NC(C(=O)c2c[nH]c3ccccc23)c2ccc(C#N)cc2)ccn1` (stereo not shown) [CPD-061], for which a half-maximal effect in data set [1] (EC50) was put at 1.71 µM. Besides, the CC50 at 4 days in data set [2] turned out to be 59 µM.

Turning to `COc1cccc(NC(C(=O)c2csc3c2CCN(C)C3)c2ccccc2)c1` (stereo not shown) [CPD-202], the EC50 (in general, the concentration that produces a half-maximal response) in data set [1] was 8.33 µM. The CC50 at 4 days in data set [2] was determined as 104 µM.

In data set [1], `COc1cc(NC(C(=O)c2c[nH]c3ccccc23)c2ccccc2)cc(C(F)(F)F)c1` (stereo not shown) [CPD-014] showed a 50% effective concentration (EC50) of 0.02 µM. This compound returned a CC50 at 4 days in data set [2] of 8 µM.

In the case of `O=C(c1c[nH]c2ccccc12)C(NC1CCOc2ccccc21)c1ccccc1` (stereo not shown) [CPD-182], a half-maximal response in data set [1] (EC50) required 3.01 µM. Moreover, the CC50 at 4 days in data set [2] was 12 µM.

`COc1cc(NC(C(=O)c2c[nH]c3cc(Cl)ccc23)c2ccccc2)ccn1` (stereo not shown) [CPD-073] displayed an EC50 in data set [1] of 2.35 µM. The CC50 at 4 days in data set [2] worked out at 76 µM.

As for `COc1cccc(NC(C(=O)c2c[nH]c3ccccc23)c2cn3c(F)cccc3n2)c1` (stereo not shown) [CPD-109], the EC50 in data set [1] is 0.53 µM. Besides, the CC50 at 4 days in data set [2] was determined as 84 µM.

Turning to `COc1cccc(NC(C(=O)c2c[nH]c3cccc(OC)c23)c2ccccc2)c1` (stereo not shown) [CPD-231], a half-maximal effect in data set [1] (EC50) was put at 1.22 µM. The compound also gave a CC50 at 4 days in data set [2] of 18 µM.

In turn, `COc1cc(NC(C(=O)c2c[nH]c3ccccc23)c2ccccc2)ncn1` (stereo not shown) [CPD-072] showed an EC50 in data set [1] of 6.84 µM. In data set [2], this compound yielded a CC50 at 4 days of 68 µM.

Regarding `CNc1ncc(NC(C(=O)c2c[nH]c3ccccc23)c2ccccc2)cc1OC` (stereo not shown) [CPD-261], it took 0.39 µM to reach a half-maximal effect in data set [1] (EC50). In data set [2], this compound registered a CC50 at 4 days of 15 µM.

Compound `CCc1cncc(NC(C(=O)c2c[nH]c3ccccc23)c2ccccc2)c1` (stereo not shown) [CPD-248] came in with an EC50 in data set [1] of 0.56 µM. Moreover, the CC50 at 4 days in data set [2] was 15 µM.

In the case of `COc1cccc(NC(C(=O)c2c[nH]c3cccnc23)c2ccccc2)c1` (stereo not shown) [CPD-195], in data set [1], the EC50 was found to be 12.7 µM. Also, the CC50 at 4 days in data set [2] is 65 µM.

In the case of `COc1cccc(NC(C(=O)c2cn(CCN3CCOCC3)c3ccccc23)c2ccccc2)c1` (stereo not shown) [CPD-216], in data set [1], a half-maximal effect (EC50) was put at 0.84 µM. The CC50 in data set [2] is greater than 106 µM.

`COc1cccc(NC(C(=O)c2nn(C)c3cc(C#N)ccc23)c2ccccc2)c1` (stereo not shown) [CPD-286]: in data set [1], the EC50 turned out to be 1.05 µM. In data set [2], the CC50 at 4 days was greater than 126 µM.

`COc1cccc(NC(C(=O)c2c[nH]c3cc(C(=O)O)ccc23)c2ccccc2)c1` (stereo not shown) [CPD-135] showed an EC50 in data set [1] of 40.7 µM. In data set [2], this compound displayed a CC50 at 4 days greater than 124 µM.

As to `COc1cc(NC(C(=O)c2c[nH]c3ccc(CCO)cc23)c2ccccc2)cc(OC)c1` (stereo not shown) [CPD-370], the EC50 in data set [1] turned out to be 0.06 µM. The compound further showed a CC50 at 4 days in data set [2] of 66 µM.

In data set [1], `COc1cccc(NC(C(=O)c2nn(C)c3c2CN(C)CC3)c2ccccc2)c1` (stereo not shown) [CPD-223] returned an EC50 of 58 µM. The compound further came in with a CC50 at 4 days in data set [2] greater than 128 µM.

In data set [1], `COc1cccc(NC(C(=O)c2c[nH]c3ccccc23)c2ccc(N(C)C)nc2)c1` (stereo not shown) [CPD-239] came in with an EC50 of 22.7 µM. Also, the CC50 at 4 days in data set [2] was greater than 125 µM.

In data set [1], `Cc1cc(NC(C(=O)c2c[nH]c3ccccc23)c2ccccc2)no1` (stereo not shown) [CPD-022] displayed a concentration giving a half-maximal response (EC50) of 12.8 µM. Besides, the CC50 at 4 days in data set [2] is 77 µM.

The compound `COc1cccc(NC(C(=O)c2cn(CCN(C)C)c3ccccc23)c2ccccc2)c1` (stereo not shown) [CPD-114] displayed a concentration for a half-maximal effect (EC50) in data set [1] of 1.1 µM. This compound registered a CC50 in data set [2] of 52 µM.

Regarding `COc1cncc(NC(C(=O)c2nn(C)c3ccccc23)c2ccccc2)n1` (stereo not shown) [CPD-276], a half-maximal response in data set [1] (EC50) required 2.62 µM. The compound also had a CC50 at 4 days in data set [2] of 23 µM.

For `COc1cc(NC(C(=O)c2c[nH]c3cc(Cl)ccc23)c2cn3ccccc3n2)ccn1` (stereo not shown) [CPD-069], a half-maximal effect in data set [1] (EC50) was put at 2.13 µM. The same compound gave a CC50 at 4 days in data set [2] of 71 µM.

Take `COc1cccc(NC(C(=O)c2c[nH]c3ccccc23)c2cn3cc(C)ccc3n2)c1` (stereo not shown) [CPD-098]: the EC50 in data set [1] was found to be 10.7 µM. In data set [2], the CC50 at 4 days is greater than 121 µM.

As to `CCOC(=O)c1cccc(NC(C(=O)c2c[nH]c3ccccc23)c2ccccc2)c1` (stereo not shown) [CPD-068], in data set [1], it took 1.32 µM to reach a half-maximal effect (EC50). Besides, in data set [2], the CC50 at 4 days stood at 12 µM.

Regarding `O=C(c1c[nH]c2ccccc12)C(Nc1cccc(N2CCCC2=O)c1)c1ccccc1` (stereo not shown) [CPD-181], a half-maximal response in data set [1] (EC50) required 4.22 µM. Also, the CC50 at 4 days in data set [2] was greater than 122 µM.

In data set [1], `CCn1nccc1C(Nc1cccc(OC)c1)C(=O)c1c[nH]c2ccccc12` (stereo not shown) [CPD-107] yielded an EC50 of 7.88 µM. The CC50 at 4 days in data set [2] is 20 µM.

In data set [1], `COc1cc(NC(C(=O)c2c[nH]c3c(CO)cccc23)c2ccccc2)cc(OC)c1` (stereo not shown) [CPD-362] had an EC50 of 0.09 µM. In data set [2], this compound came in with a CC50 at 4 days of 41 µM.

With `COc1cc(NC(C(=O)c2c[nH]c3ccccc23)c2cn3ccccc3n2)ccn1` (stereo not shown) [CPD-064], the response in data set [1] was half-maximal at 8.75 µM (EC50). In data set [2], this compound returned a CC50 at 4 days of 72 µM.

In the case of `O=C(c1c[nH]c2ccccc12)C(Nc1cccc(CO)c1)c1ccccc1` (stereo not shown) [CPD-179], the EC50 in data set [1] came to 5.3 µM. In data set [2], the CC50 at 4 days was determined as 135 µM.

Consider `COc1cc(NC(C(=O)c2c[nH]c3ccccc23)c2ccc(F)cc2)ccn1` (stereo not shown) [CPD-090], for which the EC50 in data set [1] stood at 2.9 µM. In data set [2], this compound displayed a CC50 at 4 days of 13 µM.

As to `COc1cccc(NC(C(=O)c2nn(C)c3ccccc23)c2ccc(OC)nc2)c1` (stereo not shown) [CPD-264], a half-maximal effect in data set [1] (EC50) was put at 0.51 µM. In addition, the CC50 at 4 days in data set [2] was greater than 124 µM.

For `CC(=O)Nc1cccc(NC(C(=O)c2c[nH]c3ccccc23)c2ccccc2)c1` (stereo not shown) [CPD-174], the EC50 in data set [1] stood at 10.1 µM. In data set [2], this compound yielded a CC50 at 4 days of 61 µM.

On to `NC(=O)c1cccc(NC(C(=O)c2c[nH]c3ccccc23)c2ccccc2)c1` (stereo not shown) [CPD-065], for which the 50% effective concentration (EC50) in data set [1] worked out at 12.1 µM. The CC50 at 4 days in data set [2] was 90 µM.

In data set [1], `COc1cccc(NC(C(=O)c2c[nH]c3ccccc23)c2cc(C)no2)c1` (stereo not shown) [CPD-102] came in with an EC50 of 0.62 µM. In addition, the CC50 at 4 days in data set [2] was 65 µM.

On to `CCOC(=O)CCCOc1cc(NC(C(=O)c2c[nH]c3ccccc23)c2ccccc2)cc(OC)c1` (stereo not shown) [CPD-367], for which the EC50 in data set [1] was found to be 0.04 µM. The CC50 at 4 days in data set [2] was greater than 103 µM.

In turn, `O=C(c1c[nH]c2ccccc12)C(Nc1cccc(-n2cncn2)c1)c1ccccc1` (stereo not shown) [CPD-058] returned an EC50 in data set [1] of 2.85 µM. In data set [2], the CC50 at 4 days is 64 µM.

As for `COc1cccc(NC(C(=O)c2nn(C)c3c2CNCC3)c2ccccc2)c1` (stereo not shown) [CPD-221], the EC50 in data set [1] amounted to 29.3 µM. This compound displayed a CC50 at 4 days in data set [2] of 80 µM.

Turning to `COc1cccc(NC(C(=O)c2noc3ccccc23)c2ccccc2)c1` (stereo not shown) [CPD-330], it took 4.63 µM to reach a half-maximal effect in data set [1] (EC50). Moreover, the CC50 at 4 days in data set [2] was greater than 139 µM.

Turning to `COc1cccc(NC(C(=O)c2c[nH]c3ccccc23)c2ccc(O)nc2)c1` (stereo not shown) [CPD-063], in data set [1], the half-maximal effective concentration (EC50) amounted to 14.3 µM. The CC50 at 4 days in data set [2] is greater than 134 µM.

The compound `COc1ccc2[nH]cc(C(=O)C(Nc3ccnc(OC)c3)c3ccccc3)c2c1` (stereo not shown) [CPD-078] yielded an EC50 in data set [1] of 11.6 µM. The compound also displayed a CC50 at 4 days in data set [2] of 109 µM.

In the case of `O=C(c1c[nH]c2ccccc12)C(NCc1cccs1)c1ccccc1` (stereo not shown) [CPD-033], the EC50 in data set [1] turned out to be 9.15 µM. The same compound displayed a CC50 at 4 days in data set [2] of 71 µM.

Turning to `O=C(c1c[nH]c2ccccc12)C(Nc1cncc(OC(F)F)c1)c1ccccc1` (stereo not shown) [CPD-269], in data set [1], a half-maximal effect (EC50) was put at 0.48 µM. Besides, in data set [2], the CC50 at 4 days was 13 µM.

`COc1cccc(NC(C(=O)c2c[nH]c3ccccc23)c2cncc(OC)c2)c1` (stereo not shown) [CPD-312] registered an EC50 in data set [1] of 4.67 µM. In data set [2], this compound showed a CC50 at 4 days of 69 µM.

The values above are taken from patent publication US12012411B2, “Viral replication inhibitors” (Katholieke Universiteit Leuven, priority 2011, dated 2024).
